The values below come from ChEMBL document CHEMBL1126121, “Non-prostanoid thromboxane A2 receptor antagonists with a dibenzoxepin ring system. 1” (J Med Chem, 1992).

Values joined by “and” are separate entries in the source; they are usually repeats but may differ in a detail not shown here. Equal values may be shown once.

Test [1] has as its system Thromboxane-A synthase (Bos taurus). As to the kind of experiment: Inhibitory effect against thromboxane A2 synthase from bovine platelets at 10 uM concentration.
In test [2] the test system is Cavia porcellus. The test is described as follows: Compound was tested ex vivo for it''s inhibition of U-46619 induced platelet aggregation in the guinea pig after 4 hr of administration at dose 10 mg/kg. Format: functional.
Test [3] relates to Cavia porcellus. As to the kind of experiment: Inhibitory effect of the compounds on U-46619-induced platelet aggregation ex vivo in guinea pig at the dose of 10 mg/kg 4 hr after oral administration. Format: functional.
For test [4], the target named is T1, Thromboxane-A synthase (Homo sapiens) (UniProt P24557).
T1 sequence (whole entry): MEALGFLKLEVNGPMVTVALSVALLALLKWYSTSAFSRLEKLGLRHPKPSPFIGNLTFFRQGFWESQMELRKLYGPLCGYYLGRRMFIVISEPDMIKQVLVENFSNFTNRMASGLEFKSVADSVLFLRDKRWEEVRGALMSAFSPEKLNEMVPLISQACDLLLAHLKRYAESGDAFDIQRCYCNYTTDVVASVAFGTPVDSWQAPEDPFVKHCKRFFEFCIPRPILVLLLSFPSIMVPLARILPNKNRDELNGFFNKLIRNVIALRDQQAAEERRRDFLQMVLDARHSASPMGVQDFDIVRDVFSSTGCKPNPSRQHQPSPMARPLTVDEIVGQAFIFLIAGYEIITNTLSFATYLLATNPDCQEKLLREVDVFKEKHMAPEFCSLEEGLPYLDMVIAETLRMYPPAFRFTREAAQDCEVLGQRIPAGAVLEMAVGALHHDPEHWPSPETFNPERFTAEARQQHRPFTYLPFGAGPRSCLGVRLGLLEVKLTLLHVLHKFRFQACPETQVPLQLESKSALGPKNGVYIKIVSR
As to the kind of experiment: Inhibitory activity against thromboxane A2 synthase obtained from bovine platelet microsomes at 10 uM. The following applies: Bos taurus, target entry is the homologue from another species.

The subject of test [5] is Cavia porcellus. As to the kind of experiment: Inhibitory effect of the compounds on U-46619-induced platelet aggregation ex vivo in guinea pig at the dose of 10 mg/kg 2 hr after oral administration. Format: functional.
For test [6], the target named is T2, Thromboxane A2 receptor (Homo sapiens) (UniProt P21731).
T2 sequence (whole entry): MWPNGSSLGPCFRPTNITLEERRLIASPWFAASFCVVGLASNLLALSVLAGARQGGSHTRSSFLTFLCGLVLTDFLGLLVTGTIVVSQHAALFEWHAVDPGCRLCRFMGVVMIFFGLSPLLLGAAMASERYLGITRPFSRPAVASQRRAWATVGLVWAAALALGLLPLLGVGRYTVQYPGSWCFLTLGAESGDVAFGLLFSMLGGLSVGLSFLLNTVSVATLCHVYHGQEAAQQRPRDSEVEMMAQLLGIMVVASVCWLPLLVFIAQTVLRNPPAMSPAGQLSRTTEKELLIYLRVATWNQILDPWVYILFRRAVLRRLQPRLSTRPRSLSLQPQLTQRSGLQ
The test is described as follows: Binding affinity for thromboxane A2 receptor by measuring its ability to displace [3H]U-46619 from guinea pig platelets at 0.1 uM. To be noted: Cavia porcellus, target entry is the homologue from another species.

Test [7] relates to Cavia porcellus. The test is described as follows: Compound was tested ex vivo for it''s inhibition of U-46619 induced platelet aggregation in the guinea pig after 2 hr of administration at dose 10 mg/kg. Format: functional.
The target of test [8] is T2, Thromboxane A2 receptor (Homo sapiens). As to the kind of experiment: Binding affinity for thromboxane A2 receptor by measuring ability to displace [3H]U-46619 from guinea pig platelets at 1 uM. The following applies: Cavia porcellus, target entry is the homologue from another species.
The target is the same in test [9]. The test is described as follows: Inhibitory effect against binding thromboxane A2 receptor on guinea pig platelets using [3H]U-46619 as radioligand at 1 uM concentration. The following applies: Cavia porcellus, target entry is the homologue from another species.
The test system of test [10] is Cavia porcellus. As to the kind of experiment: Compound was tested ex vivo for it''s inhibition of U-46619 induced platelet aggregation in the guinea pig after 7 hr of administration at dose 10 mg/kg. Format: functional.
Test [11] deals with Cavia porcellus. The test is described as follows: Compound was tested ex vivo for it's inhibition of U-46619 induced platelet aggregation in the guinea pig after 4 hr of administration at dose 10 mg/kg. Format: functional.
In test [12] the test system is Cavia porcellus. The test is described as follows: Inhibitory effect of the compounds on U-46619-induced platelet aggregation ex vivo in guinea pig at the dose of 10 mg/kg 7 hr oral after administration. Format: functional.
Test [13] relates to Cavia porcellus. As to the kind of experiment: Compound was tested ex vivo for it's inhibition of U-46619 induced platelet aggregation in the guinea pig after 2 hr of administration at dose 10 mg/kg. Format: functional.
Test [14] deals with T2, Thromboxane A2 receptor (Homo sapiens). As to the kind of experiment: Compound was tested for its binding affinity at Thromboxane A2 receptor by measuring its ability to displace [3H]-U-46,619 from guinea pig platelets at 1 uM. The following applies: Cavia porcellus, target entry is the homologue from another species.
The target is the same in test [15]. The test is described as follows: Compound was tested for its binding affinity at Thromboxane A2 receptor by measuring its ability to displace [3H]U-46619 from guinea pig platelets. To be noted: Cavia porcellus; target entry is the homologue from another species; concentration not given here.
Test [16] deals with Cavia porcellus. The test is described as follows: Compound was tested ex vivo for it''s inhibition of U-46619 induced platelet aggregation in the guinea pig ex vivo after 7 hr of administration at dose 10 mg/kg. Format: functional.
For test [17], the system named is Cavia porcellus. The test is described as follows: Compound was tested ex vivo for it's inhibition of U-46619 induced platelet aggregation in the guinea pig after 2 hr of administration at dose 30 mg/kg. Format: functional.
The test system of test [18] is Cavia porcellus. As to the kind of experiment: Compound was tested ex vivo for it's inhibition of U-46619 induced platelet aggregation in the guinea pig after 2 hr of administration at dose 100 mg/kg. Format: functional.
In test [19] the test system is Cavia porcellus. As to the kind of experiment: Inhibitory effect of the compounds on U-46619-induced platelet aggregation ex vivo in guinea pig at the dose of 100 mg/kg 4 hr after oral administration. It is filed as functional.
In test [20] the test system is Cavia porcellus. The test is described as follows: Inhibitory effect of the compounds on U-46619-induced platelet aggregation ex vivo in guinea pig at the dose of 30 mg/kg 2 hr after oral administration. It is filed as functional.
Test [21] relates to Cavia porcellus. As to the kind of experiment: Compound was tested ex vivo for it's inhibition of U-46619 induced platelet aggregation in the guinea pig after 4 hr of administration at dose 100 mg/kg. It is filed as functional.
For test [22], the system named is Cavia porcellus. The test is described as follows: Compound was tested ex vivo for it's inhibition of U-46619 induced platelet aggregation in the guinea pig after 4 hr of administration at dose 30 mg/kg. It is filed as functional.
Test [23] has as its system Cavia porcellus. As to the kind of experiment: Inhibitory effect of the compounds on U-46619-induced platelet aggregation ex vivo in guinea pig at the dose of 100 mg/kg 2 hr after oral administration. Format: functional.
The target in test [24] is T2, Thromboxane A2 receptor (Homo sapiens). As to the kind of experiment: Compound was tested for its binding affinity at TXA2 receptor by measuring its ability to displace [3H]U-46619 from guinea pig platelets at 1 uM. To be noted: Cavia porcellus, target entry is the homologue from another species.

On to `O=C(NCCSC1c2ccccc2COc2ccc(C(=O)O)cc21)OCc1ccccc1` (centres undefined), for which the inhibition (in general, the change of the read-out against control, counted positive when it falls) in test [1] stood at 56%; in [4] it was 56%; in [6], 79%; in test [8], 96%; in [9], 96%. Also, the Aggregation with Cavia porcellus [2] is 57.3%; with Cavia porcellus [7] it was 8.7%. Further, the values for the Platelet aggregation in the test with Cavia porcellus [3] and with Cavia porcellus [5] were 57.3% and 8.7%, respectively.
For `O=C(O)c1ccc2c(c1)C(SCCNS(=O)(=O)c1ccccc1)c1ccccc1CO2` (centres undefined), the Aggregation in the test with Cavia porcellus [10] was found to be 12.3%; in the test with Cavia porcellus [11] it was 4.5%; in the test with Cavia porcellus [13] it was 11.8%. Moreover, the Platelet aggregation amounted to 12.3% in the test with Cavia porcellus [12], 4.5% with Cavia porcellus [3] and 11.8% with Cavia porcellus [5]. The inhibition in test [6] was 72%; in test [8], 92%; in test [9] it was 92% and 84%.
As to `O=C(O)c1ccc2c(c1)C(SCC/N=C(\S)NCc1ccccc1)c1ccccc1CO2` (centres undefined), the inhibition was found to be 92% in test [1]; 92% in test [4]; 80% in test [6]; 96% in test [8]; 96% in test [9]. This compound also showed an Aggregation in the test on Cavia porcellus [2] of 61.7%. Moreover, the Platelet aggregation in the test on Cavia porcellus [5] is listed as 61.7%.
Take `O=C(O)c1ccc2c(c1)C(SCCNS(=O)(=O)/C=C/c1ccccc1)c1ccccc1CO2` (racemic) [listing 1 of 2 here]: the inhibition is 97% in test [14], 92% in test [15] and 97% in test [9].
As to `O=C(O)c1ccc2c(c1)C(SCCNS(=O)(=O)c1ccccc1)c1ccccc1CS2` (centres undefined), the Aggregation in the test on Cavia porcellus [2] and with Cavia porcellus [7] was 0% each time. Besides, the Platelet aggregation in the test with Cavia porcellus [3] and in the test on Cavia porcellus [5] was 0% each time. In addition, the inhibition is 94% in [6], 99% in [8] and 99% in test [9].
As to `O=C(O)c1ccc2c(c1)C(SCCNC(=O)c1ccccc1O)c1ccccc1CO2` (centres undefined), the inhibition amounted to 53% in test [1]; 53% in [4]; 90% in [6]; 99% in [8]; 99% in test [9]. The same compound yielded a Platelet aggregation with Cavia porcellus [5] of 64.5%. Besides, in the test on Cavia porcellus [7], the Aggregation turned out to be 64.5%.
Regarding `O=C(O)c1ccc2c(c1)C(SCCNS(=O)(=O)/C=C/c1ccccc1)c1ccccc1CO2` (racemic) [listing 2 of 2 here], the Aggregation turned out to be 2.3% in the test on Cavia porcellus [11], 10.7% in the test on Cavia porcellus [16] and 0% in the test with Cavia porcellus [13].
For the compound `O=C(O)c1ccc2c(c1)C(SCCNS(=O)(=O)c1ccccc1)c1cc(Br)ccc1CO2` (centres undefined), the inhibition in test [1] came to 6%; in test [4] it was 6%; in test [6] it was 75%; in [8], 94%; in test [9], 94%. The Platelet aggregation with Cavia porcellus [5] is given as 41%. In the test with Cavia porcellus [13], this compound registered an Aggregation of 41%.
Regarding `O=C(O)c1ccc2c(c1)C(SCCNC(=O)c1ccccc1)c1ccccc1CO2` (centres undefined), the inhibition in test [1] is 63%; in test [4], 63%; in test [6] it was 69%; in test [8], 92%; in test [9], 92%. The compound also gave a Platelet aggregation with Cavia porcellus [5] of 68.3%. Moreover, in the test on Cavia porcellus [7], the Aggregation amounted to 68.3%.
With `O=C(O)c1ccc2c(c1)C(SCCNS(=O)(=O)/C=C/c1ccccc1)c1ccccc1CO2` (single isomer, unassigned; (+)), the Platelet aggregation with Cavia porcellus [12] amounted to 10.7%; with Cavia porcellus [3], 2.3%; in the test on Cavia porcellus [5], 0%.
In the case of `O=C(O)c1ccc2c(c1)C(SCCNS(=O)(=O)c1cccs1)c1ccccc1CO2` (centres undefined), the inhibition worked out at 33% in [1]; 33% in test [4]; 84% in [6]; 99% in [8]; 99% in [9]. Further, the Aggregation came to 2.1% in the test on Cavia porcellus [11], 12.3% with Cavia porcellus [16] and 14.3% in the test with Cavia porcellus [13]. The Platelet aggregation worked out at 12.3% in the test with Cavia porcellus [12], 2.1% in the test with Cavia porcellus [3] and 14.3% with Cavia porcellus [5].
Consider `O=C(O)COc1ccc(CCNS(=O)(=O)c2ccccc2)cc1` [SULOTROBAN], for which the inhibition in test [14] is 31%; in test [15], -5%; in [9] it was 31%. Also, the Aggregation in the test on Cavia porcellus [17] came to 28%; with Cavia porcellus [18], 12.7%; in the test on Cavia porcellus [21], 57%; in the test on Cavia porcellus [22], 87%. Also, the Platelet aggregation is given as 87% with Cavia porcellus [3], 57% with Cavia porcellus [19], 28% in the test with Cavia porcellus [20] and 12.7% in the test with Cavia porcellus [23].
Regarding `O=C(O)c1ccc2c(c1)C(SCCNS(=O)(=O)c1ccc3ccccc3c1)c1ccccc1CO2` (centres undefined), the inhibition came to 38% in test [1], 38% in [4], 77% in test [6] and 95% in [9]. The same compound showed a pInhibition in [24] of 95%.
With `COc1ccc(S(=O)(=O)NCCSC2c3ccccc3COc3ccc(C(=O)O)cc32)cc1` (centres undefined), the inhibition in test [1] came to 75%; in [4], 75%; in test [6] it was 83%; in test [8], 93%; in test [9], 93%.
